Source: patent US20250152719A1, “FUSED IMIDE DERIVATIVE” (Chia Tai Tianqing Pharmaceutical Group Co., Ltd., priority 2021, published 2025)

Legend:
Type in all cases: cell-based
BTK = BTK (Homo sapiens (Human), UniProt Q06187); test: BTK degradation in OCI-LY10 cells (Total-BTK HTRF kit); conditions: 24 (or 6) h incubation; for DC50 / BTK degradation in OCI-LY10 cells Dmax: OCI-LY10 cells; for DC50: DC50 = concentration when degradation rate reaches 50%, read-out: OCI-LY10 cell BTK degradation DC50; for Dmax: OCI-Ly10, OCI-LY10 cells; for Dmax / BTK degradation in OCI-LY10 cells Dmax: maximum degradation rate
Chain of BTK (Q06187 whole entry): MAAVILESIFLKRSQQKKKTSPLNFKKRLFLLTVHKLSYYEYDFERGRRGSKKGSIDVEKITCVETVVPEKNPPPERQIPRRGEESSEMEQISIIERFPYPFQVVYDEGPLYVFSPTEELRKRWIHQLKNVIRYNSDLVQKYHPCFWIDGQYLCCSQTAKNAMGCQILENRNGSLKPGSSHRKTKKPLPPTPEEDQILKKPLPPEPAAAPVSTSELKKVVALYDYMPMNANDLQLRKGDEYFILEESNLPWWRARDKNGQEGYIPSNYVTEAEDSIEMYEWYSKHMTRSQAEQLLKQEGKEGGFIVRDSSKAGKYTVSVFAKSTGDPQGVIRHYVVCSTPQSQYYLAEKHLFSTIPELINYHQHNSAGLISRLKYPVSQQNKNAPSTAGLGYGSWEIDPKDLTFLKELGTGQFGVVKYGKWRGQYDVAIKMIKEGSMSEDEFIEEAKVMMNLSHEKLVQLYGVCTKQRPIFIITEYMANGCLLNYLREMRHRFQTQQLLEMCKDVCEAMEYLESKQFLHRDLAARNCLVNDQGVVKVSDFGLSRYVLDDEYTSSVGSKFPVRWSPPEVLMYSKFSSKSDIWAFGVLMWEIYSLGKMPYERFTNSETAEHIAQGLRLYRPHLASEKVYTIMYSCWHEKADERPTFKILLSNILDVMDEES
Experimental: The detection was carried out using the Total-BTK Kits (cisbio, 63ADK064PEH), and 4× Supplemented Lysis buffer was prepared using the Blocking reagent stock solution (100×) and Lysis buffer stock solution (4×). Premixed antibody solutions were prepared using the Detection buffer, Total-BTK d2 antibody, and Total-BTK Eu Cryptate antibody.
OCI-LY10 cells in a good growth state were collected and added to a centrifuge tube, adjusted to a cell density of 4.17×10^6 cells/mL, and seeded in a 384-well plate (12 μL/well). The cells were incubated overnight in a cell incubator. Compounds were added using a nanoliter pipettor such that the final concentrations of the compounds were 100 nM-0.098 nM; the addition was performed in duplicate, and meanwhile, a control was set. After another 24 (or 6) h of incubation in the cell incubator, the 4× Supplemented Lysis buffer was added at 4 μL/well to lyse the cells. After the cells were shaken for 40 min at room temperature, the Premixed antibody solutions were added at 4 μL/well, and the cells were left to stand overnight at room temperature. Fluorescence values of the cells were detected at 665 nm/620 nm using an Envision microplate reader, the four-parameter analysis was performed, the dose-response curves were fit, and DC50 (the concentration of the drug when the degradation rate reaches 50%) and Dmax (the maximum degradation rate) were calculated.

OCI-LY10 cells = test: Inhibitory activity on OCI-LY10 cell proliferation (CCK-8); conditions: Homo sapiens, OCI-Ly10, 72 h incubation
Experimental: (§1) OCI-LY10 cells in a good growth state were collected and added to a centrifuge tube, adjusted to a cell density of 1×10^5 cells/mL, and seeded in a 96-well plate (100 μL/well). The cells were incubated overnight in a cell incubator. Compounds were added using a nanoliter pipettor such that the final concentrations of the compounds were 5000 nM-0.31 nM; the addition was performed in duplicate, and meanwhile, a control was set. After another 72 h of incubation in the cell incubator, 10 μL of CCK-8 (CK04, PP799) was added. After 2.5 h of incubation in the cell incubator, absorbance values were detected at 450 nm using an Envision microplate reader, the four-parameter analysis was performed, the dose-response curves were fit, and IC50 was calculated.

TMD8-BTK(C481S) cells = test: Inhibitory activity on TMD8-BTK(C481S) cell proliferation (CCK-8); conditions: 72 h incubation
Experimental: as §1, with “TMD8-BTK(C481S)” for “OCI-LY10”, “8×10^4” for “1×10^5”, “4” for “2.5”

Row | SMILES | Dmax (BTK) [%] | IC50 (TMD8-BTK(C481S) cells; 72 h) [nM] | BTK degradation in OCI-LY10 cells Dmax (BTK) [%] | other results
1 | CN1CCN([C@@H]2CCCN(c3cnc(C(N)=O)c(Nc4ccc(C5CCN(C[C@H]6CCN(c7ccc8c(C9CCC(=O)NC9=O)noc8c7)C6)CC5)cc4)n3)C2)C1=O (some centres unmarked) [Compound 1] | 99 | 35 | – | DC50 (BTK): < 0.098 nM; IC50 (OCI-LY10 cells): < 0.31 nM
2 | CN1CCN([C@@H]2CCCN(c3cnc(C(N)=O)c(Nc4ccc(C5CCN(C[C@H]6CCN(c7cccc8c(C9CCC(=O)NC9=O)noc78)C6)CC5)cc4)n3)C2)C1=O (some centres unmarked) [Compound 2] | 99 | 18 | – | DC50 (BTK): < 0.098 nM
3 | CN1CCN([C@@H]2CCCN(c3cnc(C(N)=O)c(Nc4ccc(C5CCN(C[C@H]6CCN(c7cc8onc(C9CCC(=O)NC9=O)c8cc7F)C6)CC5)cc4)n3)C2)C1=O (some centres unmarked) [Compound 3] | 99 | – | – | DC50 (BTK): < 0.098 nM; IC50 (OCI-LY10 cells): < 0.31 nM
4 | CN1CCN([C@@H]2CCCN(c3cnc(C(N)=O)c(Nc4ccc(C5CCN(C[C@H]6CCN(c7ccc8onc(C9CCC(=O)NC9=O)c8c7)C6)CC5)cc4)n3)C2)C1=O (some centres unmarked) [Compound 4] | – | 27 | – | –
5 | CN1CCN([C@@H]2CCCN(c3cnc(C(N)=O)c(Nc4ccc(C5CCN(C[C@H]6CCC(c7ccc8c(C9CCC(=O)NC9=O)noc8c7)C6)CC5)cc4)n3)C2)C1=O (some centres unmarked) [Compound 6] | 99 | 27 | – | DC50 (BTK): < 0.098 nM; IC50 (OCI-LY10 cells): < 0.31 nM
6 | CN1CCN([C@@H]2CCCN(c3cnc(C(N)=O)c(Nc4ccc(C5CCC6(CC5)CN(CC5CN(c7ccc8c(C9CCC(=O)NC9=O)noc8c7)C5)C6)cc4)n3)C2)C1=O (some centres unmarked) [Compound 11] | 99 | 14 | – | DC50 (BTK): < 0.098 nM; IC50 (OCI-LY10 cells): < 0.31 nM
7 | CN1CCN([C@@H]2CCCN(c3cnc(C(N)=O)c(Nc4ccc(C5CCC6(CC5)CN(C5CN(c7ccc8c(C9CCC(=O)NC9=O)noc8c7)C5)C6)cc4)n3)C2)C1=O (some centres unmarked) [Compound 12] | – | – | 99 | DC50 (BTK): 0.098 nM
8 | NC(=O)c1ncc(N2CCCCC2)nc1Nc1ccc(N2CCC(N3Cc4ccc5c(C6CCC(=O)NC6=O)noc5c4C3)CC2)cc1 (centres unmarked) [Compound 31] | > 90 | – | – | –
9 | CN1CCN([C@@H]2CCCN(c3cnc(C(N)=O)c(Nc4ccc5c(c4)CN(CC4Cc6ccc7c(C8CCC(=O)NC8=O)noc7c6C4)C5)n3)C2)C1=O (some centres unmarked) [Compound 45] | – | – | >90 | –
10 | CN1CCN([C@@H]2CCCN(c3cnc(C(N)=O)c(Nc4ccc(C5C[C@@H]6CN(CC7Cc8ccc9c(C%10CCC(=O)NC%10=O)noc9c8C7)C[C@@H]6C5)cc4)n3)C2)C1=O (some centres unmarked) [Compound 48] | > 90 | 5.7 | – | –
11 | CN1CCN([C@@H]2CCCN(c3cnc(C(N)=O)c(Nc4ccc(C5C[C@@H]6CN(CC7Cc8ccc9c(C%10CCC(=O)NC%10=O)noc9c8C7)C[C@@H]6C5)cc4)n3)C2)C1=O (some centres unmarked) [Compound 49] | – | – | >90 | IC50 (TMD8-BTK(C481S) cells): 6.8 nM
12 | CN1CCN([C@@H]2CCCN(c3cnc(C(N)=O)c(Nc4ccc(C5CCC6(CC5)CCN(CC5Cc7ccc8c(C9CCC(=O)NC9=O)noc8c7C5)CC6)cc4)n3)C2)C1=O (some centres unmarked) [Compound 51] | – | – | >90 | IC50 (TMD8-BTK(C481S) cells): 4.7 nM
13 | CN1CCN([C@@H]2CCCN(c3cnc(C(N)=O)c(Nc4ccc(C5CCC6(CC5)CN(CC5Cc7ccc8c(C9CCC(=O)NC9=O)noc8c7C5)C6)cc4)n3)C2)C1=O (some centres unmarked) [Compound 52] | – | 3.7 | >90 | –
14 | CN1CCN([C@@H]2CCCN(c3cnc(C(N)=O)c(Nc4ccc(C5CCC6(CC5)CN(CC5Cc7ccc8c(C9CCC(=O)NC9=O)noc8c7C5)C6)cc4)n3)C2)C1=O (some centres unmarked) [Compound 53] | 96 | – | – | DC50 (BTK): < 0.098 nM; IC50 (OCI-LY10 cells): < 0.31 nM; IC50 (TMD8-BTK(C481S) cells): 2.8 nM
15 | CN1CCN(C2CCCN(c3cnc(C(N)=O)c(Nc4ccc(C5CCC6(CC5)CN(C5Cc7ccc8c(C9CCC(=O)NC9=O)noc8c7C5)C6)cc4)n3)C2)C1=O (centres unmarked) [Compound 54] | > 90 | 9.7 | – | –
16 | CN1CCN(C2CCCN(c3cnc(C(N)=O)c(Nc4ccc(C5CCC6(CC5)CN(C5Cc7ccc8c(C9CCC(=O)NC9=O)noc8c7C5)C6)cc4)n3)C2)C1=O (centres unmarked) [Compound 55] | – | – | >90 | IC50 (TMD8-BTK(C481S) cells): 6.1 nM
17 | CN1CCN([C@@H]2CCCN(c3cnc(C(N)=O)c(Nc4ccc(C5CCC6(CC5)CC(N5Cc7ccc8c(C9CCC(=O)NC9=O)noc8c7C5)C6)cc4)n3)C2)C1=O (some centres unmarked) [Compound 56] | > 90 | 33 | – | –
18 | CN1CCN([C@@H]2CCCN(c3cnc(C(N)=O)c(Nc4ccc(C5CCC6(CC5)CC(N5CCc7ccc8c(C9CCC(=O)NC9=O)noc8c7C5)C6)cc4)n3)C2)C1=O (some centres unmarked) [Compound 57] | > 90 | – | – | –

Row | SMILES | Dmax (BTK) [%] | IC50 (TMD8-BTK(C481S) cells; 72 h) [nM] | BTK degradation in OCI-LY10 cells Dmax (BTK) [%] | other results
19 | CN1CCN([C@@H]2CCCN(c3cnc(C(N)=O)c(Nc4ccc(C5CCC6(CC5)CC(N5CCc7c(ccc8c(C9CCC(=O)NC9=O)noc78)C5)C6)cc4)n3)C2)C1=O (some centres unmarked) [Compound 58] | > 90 | 21 | – | –
20 | NC(=O)c1ncc(N2CCCCC2)nc1Nc1ccc(N2CCC(N3CCc4ccc5c(C6CCC(=O)NC6=O)noc5c4C3)CC2)cc1 (centres unmarked) [Compound 60] | – | 9.4 | – | –
21 | NC(=O)c1ncc(N2CCCCC2)nc1Nc1ccc(N2CCC(N3CCc4c(ccc5c(C6CCC(=O)NC6=O)noc45)C3)CC2)cc1 (centres unmarked) [Compound 61] | – | 13 | – | –
22 | NC(=O)c1ncc(N2CCCCC2)nc1Nc1ccc(N2CCC(N3CCc4ccc5c(C6CCC(=O)NC6=O)noc5c4CC3)CC2)cc1 (centres unmarked) [Compound 62] | > 90 | 8.2 | – | IC50 (OCI-LY10 cells): < 0.31 nM
23 | NC(=O)c1ncc(N2CCCCC2)nc1Nc1ccc(C2CCC(N3CCc4ccc5c(C6CCC(=O)NC6=O)noc5c4CC3)CC2)cc1 (centres unmarked) [Compound 67] | – | – | – | IC50 (TMD8-BTK(C481S) cells): 32 nM
24 | NC(=O)c1ncc(N2CCCCC2)nc1Nc1ccc(C2CCN(C3Cc4ccc5c(C6CCC(=O)NC6=O)noc5c4C3)CC2)cc1 (centres unmarked) [Compound 70] | – | – | – | IC50 (TMD8-BTK(C481S) cells): 15 nM
25 | NC(=O)c1ncc(N2CCCCC2)nc1Nc1ccc(C2CCC(CN3CCc4ccc5c(C6CCC(=O)NC6=O)noc5c4CC3)CC2)cc1 (centres unmarked) [Compound 74] | – | – | – | IC50 (TMD8-BTK(C481S) cells): 23 nM
26 | NC(=O)c1ncc(N2CCCCC2)nc1Nc1ccc(C2CCN(CC3Cc4ccc5c(C6CCC(=O)NC6=O)noc5c4C3)CC2)cc1 (centres unmarked) [Compound 75] | – | 9.8 | – | –
27 | NC(=O)c1ncc(N2CCCCC2)nc1Nc1ccc(C2CCN(CC3Cc4ccc5c(C6CCC(=O)NC6=O)noc5c4C3)CC2)cc1 (centres unmarked) [Compound 76] | > 90 | – | – | IC50 (TMD8-BTK(C481S) cells): 11 nM
28 | CN1CCN([C@@H]2CCCN(c3cnc(C(N)=O)c(Nc4ccc5c(c4)CCC4(CCN(CC6Cc7ccc8c(C9CCC(=O)NC9=O)noc8c7C6)CC4)O5)n3)C2)C1=O (some centres unmarked) [Compound 78] | – | – | >90 | –
29 | CN1CCN([C@@H]2CCCN(c3cnc(C(N)=O)c(Nc4ccc5c(c4)OC[C@H]4CN(CC6Cc7ccc8c(C9CCC(=O)NC9=O)noc8c7C6)CCN54)n3)C2)C1=O (some centres unmarked) [Compound 86] | > 90 | – | – | –
30 | CN1CCN([C@@H]2CCCN(c3cnc(C(N)=O)c(Nc4ccc(C5CCN(C6Cc7ccc8c(C9CCC(=O)NC9=O)noc8c7C6)CC5)cc4)n3)C2)C1=O (some centres unmarked) [Compound 88] | – | – | >90 | IC50 (TMD8-BTK(C481S) cells): 29 nM
31 | CN1CCN([C@@H]2CCCN(c3cnc(C(N)=O)c(Nc4ccc(C5CCN(C[C@H]6C[C@H](n7ccc8c9c(C%10CCC(=O)NC%10=O)noc9ccc87)C6)CC5)cc4)n3)C2)C1=O (some centres unmarked) [Compound 98-1] | – | – | >90 | –
32 | NC(=O)c1ncc(N2CCCCC2)nc1Nc1ccc(C2CCN(C[C@H]3C[C@@H](n4ccc5c6c(C7CCC(=O)NC7=O)noc6ccc54)C3)CC2)cc1 (some centres unmarked) [Compound 99-1] | – | – | >90 | –
33 | CN1CCN([C@@H]2CCCN(c3cnc(C(N)=O)c(Nc4ccc(C5CCN([C@H]6CC[C@@H](n7ccc8c9c(C%10CCC(=O)NC%10=O)noc9ccc87)CC6)CC5)cc4)n3)C2)C1=O (some centres unmarked) [Compound 102-1] | – | – | >90 | –
34 | CN1CCN([C@@H]2CCCN(c3cnc(C(N)=O)c(Nc4ccc(C5CCN([C@H]6CC[C@H](n7ccc8c9c(C%10CCC(=O)NC%10=O)noc9ccc87)CC6)CC5)cc4)n3)C2)C1=O (some centres unmarked) [Compound 102-2] | – | – | 97.11 | DC50 (BTK): < 0.098 nM
35 | NC(=O)c1ncc(N2CCCCC2)nc1Nc1ccc(C2CCN([C@H]3CC[C@H](n4ccc5c6c(C7CCC(=O)NC7=O)noc6ccc54)CC3)CC2)cc1 (some centres unmarked) [Compound 103-2] | – | – | >90 | –
